# Results: ChEMBL document CHEMBL1152944, “Design, synthesis and biological evaluation of novel triazole, urea and thiourea derivatives of quinoline against Mycobacterium tuberculosis” (Bioorg Med Chem, 2009)
# Key:
# [1] = Cytotoxicity against mouse macrophage cells assessed as cell viability at 10 ug/100 ul after 24 hrs by MTT assay; assay type: cell-based; conditions: read-out: Activity
# [2] = Cytotoxicity against mouse macrophage cells assessed as cell viability at 10 ug/100 ul after 72 hrs by MTT assay; assay type: cell-based; conditions: read-out: Activity
# [3] = Cytotoxicity against mouse macrophage cells assessed as cell viability at 1 ug/100 ul after 72 hrs by MTT assay; assay type: cell-based; conditions: read-out: Activity
# [4] = Cytotoxicity against mouse macrophage cells assessed as cell viability at 1 ug/100 ul after 24 hrs by MTT assay; assay type: cell-based; conditions: read-out: Activity
# [5] = system: Mycobacterium tuberculosis; assay: Antimycobacterial activity against Mycobacterium tuberculosis H37Rv ATCC 27294 at 6.25 ug/mL by BACTEC 460 radiometric assay; assay type: functional
# [6] = system: Mycobacterium tuberculosis; assay: Antimycobacterial activity against Mycobacterium tuberculosis H37Rv ATCC 27294; assay type: functional
structure (smiles),measurement,setting,value
CC(O)c1cc(F)ccc1Oc1nc2ccc(NC(=O)Nc3cccc([N+](=O)[O-])c3)cc2cc1Cc1ccccc1 (stereo not given),"viability at 24 h, 10 ug/100 ul",[1],87%
same,"viability at 72 h, 10 ug/100 ul",[2],53%
same,"viability at 72 h, 1 ug/100 ul",[3],55%
same,"viability at 24 h, 1 ug/100 ul",[4],91%
same,inhibition at 6.25 µg/mL,[5],98%
same,MIC,[6],6.25 µg/mL
COc1cccc(-c2ccn(CC(O)c3cc(F)ccc3Oc3nc4ccc([N+](=O)[O-])cc4cc3Cc3ccccc3)n2)c1 (stereo not given),inhibition at 6.25 µg/mL,[5],7%
COc1ccc(-c2ccn(CC(O)c3cc(F)ccc3Oc3nc4ccc([N+](=O)[O-])cc4cc3Cc3ccccc3)n2)cc1 (stereo not given),inhibition at 6.25 µg/mL,[5],5%
CC(c1cc(F)ccc1Oc1nc2ccc(-n3cc(-c4ccccc4)nn3)cc2cc1Cc1ccccc1)N1CCCCC1 (stereo not given),inhibition at 6.25 µg/mL,[5],81%
O=[N+]([O-])c1ccc2nc(Oc3ccc(F)cc3C(O)CN3CCOCC3)c(Cc3ccccc3)cc2c1 (stereo not given),inhibition at 6.25 µg/mL,[5],29%
COc1ccccc1NC(=O)Nc1ccc2nc(Oc3ccc(F)cc3C(C)O)c(Cc3ccccc3)cc2c1 (stereo not given),inhibition at 6.25 µg/mL,[5],8%
COc1cccc(NC(=S)Nc2ccc3nc(Oc4ccc(F)cc4C(C)O)c(Cc4ccccc4)cc3c2)c1 (stereo not given),inhibition at 6.25 µg/mL,[5],22%
COc1ccc(NC(=O)Nc2ccc3nc(Oc4ccc(F)cc4C(C)O)c(Cc4ccccc4)cc3c2)cc1 (stereo not given),inhibition at 6.25 µg/mL,[5],25%
CC(c1cc(F)ccc1Oc1nc2ccc(-n3cc(-c4ccccc4)nn3)cc2cc1Cc1ccccc1)N1CCN(c2ccccn2)CC1 (stereo not given),inhibition at 6.25 µg/mL,[5],29%
O=[N+]([O-])c1ccc2nc(Oc3ccc(F)cc3C(O)Cn3ccc(-c4ccc(C(F)(F)F)cc4)n3)c(Cc3ccccc3)cc2c1 (stereo not given),inhibition at 6.25 µg/mL,[5],6%
CC(c1cc(F)ccc1Oc1nc2ccc(-n3cc(-c4ccccc4)nn3)cc2cc1Cc1ccccc1)n1ccnc1 (stereo not given),"viability at 24 h, 10 ug/100 ul",[1],88%
same,"viability at 72 h, 10 ug/100 ul",[2],58%
same,"viability at 72 h, 1 ug/100 ul",[3],61%
same,"viability at 24 h, 1 ug/100 ul",[4],100%
same,inhibition at 6.25 µg/mL,[5],96%
same,MIC,[6],3.12 µg/mL
O=[N+]([O-])c1ccc2nc(Oc3ccc(F)cc3C(O)Cn3ccc(-c4cccc(Cl)c4)n3)c(Cc3ccccc3)cc2c1 (stereo not given),inhibition at 6.25 µg/mL,[5],0%
O=[N+]([O-])c1ccc2nc(Oc3ccc(F)cc3C(O)CN3CCNCC3)c(Cc3ccccc3)cc2c1 (stereo not given),inhibition at 6.25 µg/mL,[5],20%
O=[N+]([O-])c1ccc2nc(Oc3ccc(F)cc3C(O)Cn3cccn3)c(Cc3ccccc3)cc2c1 (stereo not given),inhibition at 6.25 µg/mL,[5],53%
CC(c1cc(F)ccc1Oc1nc2ccc(-n3cc(-c4ccccc4)nn3)cc2cc1Cc1ccccc1)N1CCN(c2ccc(F)cc2)CC1 (stereo not given),inhibition at 6.25 µg/mL,[5],20%
O=[N+]([O-])c1ccc2nc(Oc3ccc(F)cc3C(O)Cn3ccnc3)c(Cc3ccccc3)cc2c1 (stereo not given),inhibition at 6.25 µg/mL,[5],58%
COc1cccc(NC(=O)Nc2ccc3nc(Oc4ccc(F)cc4C(C)O)c(Cc4ccccc4)cc3c2)c1 (stereo not given),"viability at 24 h, 10 ug/100 ul",[1],79%
same,"viability at 72 h, 10 ug/100 ul",[2],63%
same,"viability at 72 h, 1 ug/100 ul",[3],100%
same,"viability at 24 h, 1 ug/100 ul",[4],100%
same,inhibition at 6.25 µg/mL,[5],94%
same,MIC,[6],3.12 µg/mL
CC(O)c1cc(F)ccc1Oc1nc2ccc(NC(=S)NCc3ccc(Cl)cc3)cc2cc1Cc1ccccc1 (stereo not given),inhibition at 6.25 µg/mL,[5],37%
COc1ccc(NC(=S)Nc2ccc3nc(Oc4ccc(F)cc4C(C)O)c(Cc4ccccc4)cc3c2)cc1 (stereo not given),inhibition at 6.25 µg/mL,[5],27%
COc1ccccc1NC(=S)Nc1ccc2nc(Oc3ccc(F)cc3C(C)O)c(Cc3ccccc3)cc2c1 (stereo not given),inhibition at 6.25 µg/mL,[5],14%
